Experimental data published in US20090325952A1, “PYRAZOLO[3,4-B]PYRIDINE COMPOUNDS, AND THEIR USE AS PDE4 INHIBITORS” (Glaxo Group Limited, priority 2006, published 2009).
Counter-ions that a name gives are not always drawn.

How the values were obtained:
[1] = system: LPS-induced pulmonary neutrophilia in rats; assay: In Vivo Assay 1: LPS induced pulmonary neutrophilia in rats, intratracheal administration; parameters: species or system rat; conditions: rats; for mean inhibition of LPS-induced pulmonary neutrophilia: i.t. aqueous solution, about 2 hours prior to LPS; for estimated ED50 for inhibition of LPS-induced pulmonary neutrophilia: i.t., micronised, aqueous solution in 0.2% Tween 80 in PBS, about 2 hours prior to LPS challenge
Source text: This assay is an animal model of acute inflammation in the lung—specifically neutrophilia induced by lipopolysaccharide (LPS)—and allows the study of putative inhibition of such neutrophilia (anti-inflammatory effect) by an intratracheally (i.t.) administered PDE4 inhibitor (“drug”). The PDE4 inhibitors are suitably in dry powder, aqueous solution or aqueous suspension form. I.t. administration is one model of inhaled administration, allowing topical delivery to the lung.
Animals: Male CD (Sprague Dawley Derived) rats supplied by Charles River, United Kingdom are housed in groups of 5 rats per cage, acclimatised after delivery for at least 7 days with bedding/nesting material regularly changed, fed on SDS diet R1 pelleted food given ad lib, and supplied with daily-changed pasteurised animal grade drinking water.
Device for dry powder administration: For these studies, a Penn Century DP-4 dry powder intratracheal (i.t.) delivery device (insufflator) is used for administration of a dry powder blend of vehicle (inhalation grade lactose) and the PDE4 inhibitor compound or salt of the invention (“drug”). Each device is numbered and the sample loading chamber is unscrewed from the main device and weighed. The i.t. delivery needle is also weighed. The drug+lactose blend or inhalation grade lactose (vehicle control) is then added to the sample chamber and this is then re-weighed. The sample chamber is fitted back on to the main device to prevent any drug being lost. This procedure is repeated for all of the Penn century devices to be used in the study (one separate device for each animal). After dosing to the animals, the sample chambers and needles are re-weighed in order to determine the amount of sample that was expelled from the device.
Device for aqueous solution administration: A blunt dosing needle, whose forward end is slightly angled to the needle axis, is used, with a flexible plastic portex canula inserted into the needle. The portex cannula is inserted into the lumen of the blunt stainless steel dosing needle and this is carefully inserted into the back of the animal's throat and into the trachea via the larynx. A known volume (200 microlitres) of the vehicle (0.2% Tween 80™ in saline) or of the solution (or suspension) drug composition is administered into the trachea using a plastic syringe that is attached to the portex cannula and dosing needle. A new internal cannula is used for each different drug group. After dosing, the needle is removed from the trachea and the animals are removed from the table and continually observed until they recover from the effects of anaesthesia. The animals are then returned to the holding cages and given free access to food and water, and are observed and any unusual behavioural changes noted. (Aqueous suspensions can be handled generally similarly.)
Drugs and Materials: Lipopolysaccharide (LPS) (Serotype:0127:B8, e.g. from Sigma, UK; e.g. L3129 prepared by phenol extraction) is dissolved in phosphate-buffered saline (PBS).
For dry powder, aqueous solution or aqueous suspension administration, PDE4 inhibitors are preferably used in size-reduced (e.g. micronised) form, for example according to the Micronisation Example(s) disclosed herein.
For dry powder administration of the drug, the PDE4 inhibitor compound or salt of the invention (drug) is administered as a dry powder blended with inhalation-grade (respiratory-grade) lactose, i.e. as a dry powder composition. The target quantity of dry powder composition administered i.t. to each animal is 2 mg. This remains constant throughout the studies. To achieve different doses, blends of the drug dry powder and lactose, containing different concentrations of the PDE4 inhibitor compound or salt of the invention (drug), are prepared. […]

PDE5 (human recombinant) = PDE5 (human recombinant) (Homo sapiens, UniProt O76074); assay: Inhibition of PDE5 activity (FP or SPA assays); format: biochemical; conditions: selectivity PDE4B over PDE5
Source text: Human recombinant PDE5 is disclosed in K. Loughney et al., “Isolation and characterisation of cDNAs encoding PDE5A, a human cGMP-binding, cGMP-specific 3′,5′-cyclic nucleotide phosphodiesterase”, Gene, 1998, 216, 139-147.
(§1) The ability of compounds to inhibit catalytic activity at PDE4B or 4D (human recombinant), PDE3 (from bovine aorta), PDE5 (human recombinant) or PDE6 (from bovine retina) can optionally be determined by Scintillation Proximity Assay (SPA) in a 96-well format.
(§2) Test compounds (as a solution in DMSO, suitably about 2 microlitre (ul) volume of DMSO solution) are preincubated at ambient temperature (room temperature, e.g. 19-23° C.) in Wallac Isoplates (code 1450-514) with PDE enzyme in 50 mM Tris-HCl buffer pH 7.5, 8.3 mM MgCl2, 1.7 mM EGTA, 0.05% (w/v) bovine serum albumin for 10-30 minutes (usually 30 minutes). The enzyme concentration is adjusted so that no more than 20% hydrolysis of the substrate defined below occurs in control wells without compound, during the incubation. […] Bound radioactive product is measured using a WALLAC TRILUX 1450 Microbeta scintillation counter. […] Curves are analysed using ActivityBase and XLfit (ID Business Solutions Limited, 2 Ocean Court, Surrey Research Park, Guildford, Surrey GU2 7QB, United Kingdom) Results are expressed as pIC50 values. […]

PDE3 (from bovine aorta) = assay: Inhibition of PDE3 activity (FP or SPA assays); format: biochemical; conditions: selectivity PDE4B over PDE3
Source text: PDE3 can be purified from bovine aorta as described by H. Coste and P. Grondin, “Characterisation of a novel potent and specific inhibitor of type V phosphodiesterase”, Biochem. Pharmacol., 1995, 50, 1577-1585.
as §1, §2

SMILES | mean inhibition of LPS-induced pulmonary neutrophilia ([1]; about 10 micrograms/kg, dihydrochloride) | mean inhibition of LPS-induced pulmonary neutrophilia ([1]; about 30 micrograms/kg, dihydrochloride) | mean inhibition of LPS-induced pulmonary neutrophilia ([1]; about 100 micrograms/kg, dihydrochloride) | mean inhibition of LPS-induced pulmonary neutrophilia ([1]; about 300 micrograms/kg) | estimated ED50 for inhibition of LPS-induced pulmonary neutrophilia ([1]; dihydrochloride) | PDE4B inhibition compared with PDE5 inhibition (pIC50 values) (PDE5 (human recombinant)) | mean inhibition of LPS-induced pulmonary neutrophilia ([1]; about 10 micrograms/kg) | mean inhibition of LPS-induced pulmonary neutrophilia ([1]; about 30 micrograms/kg) | mean inhibition of LPS-induced pulmonary neutrophilia ([1]; about 100 micrograms/kg) | estimated ED50 for inhibition of LPS-induced pulmonary neutrophilia [1] | PDE4B inhibition compared with PDE3 inhibition (pIC50 values) (PDE3 (from bovine aorta))
CCc1nc2c(cnn2CC)c(NC2CCOCC2)c1CNC(=O)c1ccc(NC(=O)CCCCCCCN(C)CCO)cc1 [Example 1A1, N-{[1,6-Diethyl-4-(tetrahydro-2H-pyran-4-ylamino)-1H-pyrazolo[3,4-b]pyridin-5-yl]methyl}-4-({8-[(2-hydroxyethyl)(methyl)amino]octanoyl}amino)benzamide dihydrochloride] | about 33% | about 56% | about 76% | about 74% | approximately 12.3 micrograms/kg body weight | – | – | – | – | – | –
CCc1nc2c(cnn2CC)c(NC2CCOCC2)c1CNC(=O)c1ccc(NC(=O)CCCCCCCN(C)CCO)cc1 [Example 1B, N-{[1,6-diethyl-4-(tetrahydro-2H-pyran-4-ylamino)-1H-pyrazolo[3,4-b]pyridin-5-yl]methyl}-4-({8-[(2-hydroxyethyl)(methyl)amino]octanoyl}amino)benzamide] | – | – | – | – | – | inhibit PDE4B more strongly than they inhibit PDE3, PDE5 and PDE6 | about 29% | about 75% | about 59% | approximately 10.1 micrograms/kg body weight | inhibit PDE4B more strongly than they inhibit PDE3, PDE5 and PDE6
